Measurements as given in ChEMBL document CHEMBL6134824, “LPS-enriched interaction drives spectrum conversion in antimicrobial peptides: Design and optimization of AA16 derivatives for targeting gram-negative bacteria” (Eur J Med Chem, 2025).
Activity calls are given as the source filed them. The rule behind the calls is not given here.

Legend:
[1] = system: Lipopolysaccharide (LPS); test: Disaggregation of FITC-labeled Escherichia coli LPS assessed as change in fluorescence intensity measured for 30 mins; conditions: dose 0.1-10 µM
[2] = system: Cell membrane; test: Induction of cytoplasmic membrane depolarization in Pseudomonas aeruginosa assessed as change in fluorescence intensity by DISC3-5 dye based fluorescence analysis; type: subcellular
[3] = system: Escherichia coli; test: Antibacterial activity against Escherichia coli infected in skin wound infection ICR mouse model assessed as wound scabbing at 40 ug measured after 3 days by photographic analysis; type: functional, organism-based; conditions: dose 40.0 µg, time 3.0 day
[4] = system: Lipid bilayer; test: Disruption of membrane integrity in bacterial cell membrane mimic POPC/POPG LUVs assessed as calcein leakage measured for 30 mins by fluorescence based analysis
[5] = system: Cell membrane; test: Disruption of cell membrane integrity in Staphylococcus aureus assessed as increase in red fluorescence intensity at 0.5 times MIC by STYO 9 and PI staining based confocal microscopy analysis; type: subcellular
[6] = system: Escherichia coli; test: Antibacterial activity against Escherichia coli CMCC 44102 incubated for 16 hrs under shaking condition by standard broth microdilution method; type: functional
[7] = system: Cell membrane; test: Induction of outer membrane permeability in Pseudomonas aeruginosa assessed as fluorescence intensity by 1-N-Nphenylnaphthylamine fluorescent probe based analysis; type: subcellular
[8] = system: Cell membrane; test: Induction of cytoplasmic membrane depolarization in […] assessed as change in fluorescence intensity by DISC3-5 dye based fluorescence analysis; type: subcellular
[9] = system: Staphylococcus aureus; test: Antibacterial activity against Staphylococcus aureus incubated for 16 hrs under shaking condition in presence of LPS by standard broth microdilution method; type: functional, organism-based
[10] = system: Escherichia coli; test: Antibacterial activity against Escherichia coli infected in skin wound infection ICR mouse model assessed as reduction in wound area at 40 ug measured after 7 days by photographic analysis; type: functional; parameters: scale not given: the % may be the effect or the level left; conditions: dose 40 µg; time 7 day
[11] = system: Cell membrane; test: Induction of cytoplasmic membrane depolarization in Pseudomonas aeruginosa assessed as change in fluorescence intensity in protoplast by DISC3-5 dye based fluorescence analysis; type: subcellular
[12] = system: Staphylococcus aureus; test: Antibacterial activity against methicillin-resistant Staphylococcus aureus ATCC 43300 incubated for 16 hrs under shaking condition by standard broth microdilution method; type: functional
[13] = system: Cell membrane; test: Induction of cell membrane depolarization in Pseudomonas aeruginosa assessed as fluorescence intensity by DISC3-5 dye based fluorescence analysis; type: subcellular
[14] = system: Cell membrane; test: Disruption of cell membrane integrity in methicillin-resistant Staphylococcus aureus assessed as reduction in green to red fluorescence by STYO 9 and PI staining based confocal microscopy analysis; type: subcellular
[15] = system: Escherichia coli; test: Antibacterial activity against Escherichia coli NCTC 10418 incubated for 16 hrs under shaking condition by standard broth microdilution method; type: functional
[16] = system: Cell membrane; test: Disruption of cell membrane integrity in Escherichia coli assessed as increase in red fluorescence intensity at 0.5 times MIC by STYO 9 and PI staining based confocal microscopy analysis; type: subcellular
[17] = system: Pseudomonas aeruginosa; test: Antibacterial activity against Pseudomonas aeruginosa TL 11005 incubated for 16 hrs under shaking condition by standard broth microdilution method; type: functional
[18] = system: Staphylococcus aureus; test: Antibacterial activity against Staphylococcus aureus incubated for 60 mins in presence of LPS; type: functional, organism-based
[19] = system: Staphylococcus aureus; test: Antibacterial activity against Staphylococcus aureus NCTC 10788 incubated for 16 hrs under shaking condition by standard broth microdilution method; type: functional
[20] = system: Lipopolysaccharide (LPS); test: Disaggregation of FITC-labeled Escherichia coli LPS assessed as fluorescence intensity at 0.1 uM measured for 30 mins relative to control
[21] = system: Pseudomonas aeruginosa; test: Antibacterial activity against Pseudomonas aeruginosa TL 11001 incubated for 16 hrs under shaking condition by standard broth microdilution method; type: functional
[22] = system: Escherichia coli; test: Antibacterial activity against Escherichia coli infected in skin wound infection ICR mouse model assessed as wound scabbing at 20 ug measured after 5 days by photographic analysis; type: functional, organism-based; conditions: dose 20.0 µg, time 5.0 day
[23] = system: Pseudomonas aeruginosa; test: Antibacterial activity against Pseudomonas aeruginosa TL 11004 incubated for 16 hrs under shaking condition by standard broth microdilution method; type: functional
[24] = Hemolytic activity at mouse Red blood cell assessed as hemolysis; type: toxicity, cell-based; conditions: erythrocyte
[25] = system: Lipopolysaccharide (LPS); test: Binding affinity to LPS (unknown origin) at 4 microg/ml relative to control; conditions: dose 4.0 µg/ml
[26] = target: Lipopolysaccharide (LPS); test: Binding affinity to LPS (unknown origin) assessed as dissociation constant by MST analysis
[27] = system: Klebsiella pneumoniae; test: Antibacterial activity against Klebsiella pneumoniae FK 16298 incubated for 16 hrs under shaking condition by standard broth microdilution method; type: functional
[28] = system: Cell membrane; test: Induction of cytoplasmic membrane depolarization in Pseudomonas aeruginosa by DISC3-5 dye based fluorescence analysis; type: subcellular
[29] = system: Cell membrane; test: Disruption of cell membrane integrity in Staphylococcus aureus assessed as reduction in green to red fluorescence by STYO 9 and PI staining based confocal microscopy analysis; type: subcellular
[30] = Hemolytic activity at horse Erythrocyte assessed as hemolysis; type: toxicity, cell-based, Equus caballus; conditions: horse erythrocytes
[31] = system: Escherichia coli; test: Antibacterial activity against Escherichia coli infected in skin wound infection ICR mouse model assessed as reduction in wound area at 20 ug measured after 7 days by photographic analysis; type: functional; parameters: scale not given: the % may be the effect or the level left; conditions: dose 20 µg; time 7 day
[32] = system: Escherichia coli; test: Antibacterial activity against Escherichia coli ATCC 25922 incubated for 16 hrs under shaking condition by standard broth microdilution method; type: functional
[33] = system: Escherichia coli; test: Antibacterial activity against Escherichia coli DC 29755 incubated for 16 hrs under shaking condition by standard broth microdilution method; type: functional
[34] = system: Pseudomonas aeruginosa; test: Antibacterial activity against Pseudomonas aeruginosa ATCC 27853 incubated for 16 hrs under shaking condition by standard broth microdilution method; type: functional
[35] = system: Lipopolysaccharide (LPS); test: Disaggregation of FITC-labeled Escherichia coli LPS assessed as change in fluorescence intensity at 0.01 to 100 uM measured for 30 mins; conditions: dose 0.01-100 µM
[36] = system: Lipopolysaccharide (LPS); test: Disaggregation of FITC-labeled Escherichia coli LPS assessed as fluorescence intensity at 1 uM measured for 30 mins relative to control
[37] = system: Cell membrane; test: Induction of cytoplasmic membrane depolarization in […] assessed as increase in fluorescence intensity by DISC3-5 dye based fluorescence analysis; type: subcellular
[38] = system: Cell membrane; test: Induction of inner membrane disruption in Pseudomonas aeruginosa assessed as fluorescence intensity at 8 times MIC by DISC3-5 dye based fluorescence analysis; type: subcellular
[39] = system: Cell membrane; test: Induction of inner membrane disruption in […] assessed as change in fluorescence intensity at 8 times MIC by DISC3-5 dye based fluorescence analysis; type: subcellular
[40] = system: Lipopolysaccharide (LPS); test: Disaggregation of FITC-labeled Escherichia coli LPS assessed as fluorescence intensity at 0.01 uM measured for 30 mins relative to control

Substance: Ac-AARIPSRILRGALRVL-NH2
- Activity [1]: Dose-dependent-effect
- Activity [2]: Active
- Activity [3]: Active
- Activity [4]: 10%
- Activity [5]: Active
- MIC [6]: 32 µg/mL
- Flu intensity [7]: 30000
- Activity [8]: Active
- Activity [9]: Active
- Activity [10]: 44.8%
- Activity [11]: Active
- MIC [12]: 128 µg/mL
- Flu intensity [13]: 781
- Activity [14]: Active
- MIC [15]: 16 µg/mL
- Activity [16]: Active
- MIC [17]: 32 µg/mL
- Activity [18]: Dose-dependent-effect
- MIC [19]: 256 µg/mL
- Flu intensity [20]: 21.5
- MIC [21]: 512 µg/mL
- Activity [22]: Active
- MIC [23]: 128 µg/mL
- MHC [24]: > 512 µg/mL
- Activity [25]: > 90%
- Kd [26]: 0.152 µM
- MIC [27]: 128 µg/mL
- Activity [28]: Active
- Activity [29]: Active
- HC50 [30]: > 512 µg/mL
- Activity [31]: 32.5%
- MIC [32]: 64 µg/mL
- MIC [33]: 64 µg/mL
- MIC [34]: 32 µg/mL
- Activity [35]: Active
- Flu intensity [36]: 195

Substance: Ac-AARIPSRILFFALVRL-NH2
- MIC [12]: 16 µg/mL
- MIC [15]: 64 µg/mL
- MIC [19]: 16 µg/mL
- MHC [24]: > 512 µg/mL
- HC50 [30]: > 512 µg/mL
- Activity [37]: Active
- MIC [34]: > 512 µg/mL

Substance: Ac-AARILSRILRGALRVL-NH2
- MIC [12]: 8 µg/mL
- MIC [15]: 32 µg/mL
- MIC [19]: 4 µg/mL
- MHC [24]: 403 µg/mL
- HC50 [30]: 403 µg/mL
- MIC [34]: 16 µg/mL

Substance: Ac-AAKILSKILKGALKVL-NH2
- MIC [12]: 4 µg/mL
- MIC [15]: 8 µg/mL
- MIC [19]: 8 µg/mL
- MHC [24]: 442 µg/mL
- HC50 [30]: 442 µg/mL
- MIC [34]: 16 µg/mL

Substance: Ac-AARILSRILRFALRVL-NH2
- MIC [12]: 16 µg/mL
- Activity [14]: Active
- MIC [15]: > 512 µg/mL
- Flu intensity [38]: 2410
- MIC [19]: 32 µg/mL
- Activity [39]: Active
- MHC [24]: 34.197 µg/mL
- Activity [29]: Active
- HC50 [30]: 34.2 µg/mL
- MIC [34]: > 512 µg/mL

Substance: Ac-AARILSRILFGALRVL-NH2
- MIC [12]: 8 µg/mL
- MIC [15]: 32 µg/mL
- MIC [19]: 8 µg/mL
- MHC [24]: 51.663 µg/mL
- HC50 [30]: 51.7 µg/mL
- MIC [34]: 32 µg/mL

Substance: Ac-AARIFSRILRGALRVL-NH2
- MIC [12]: 8 µg/mL
- MIC [15]: 8 µg/mL
- MIC [19]: 4 µg/mL
- MHC [24]: 179 µg/mL
- HC50 [30]: 179 µg/mL
- MIC [34]: 16 µg/mL

Substance: Ac-AARIFSRILFGALRVL-NH2
- MIC [12]: 4 µg/mL
- MIC [15]: 32 µg/mL
- MIC [19]: 8 µg/mL
- MHC [24]: 110 µg/mL
- HC50 [30]: 110 µg/mL
- MIC [34]: 32 µg/mL

Substance: Ac-AARIPSRILFRALRVL-NH2
- MIC [12]: 16 µg/mL
- MIC [15]: 32 µg/mL
- MIC [19]: 32 µg/mL
- MHC [24]: > 512 µg/mL
- HC50 [30]: > 512 µg/mL
- Activity [37]: Active
- MIC [34]: 64 µg/mL

Substance: Ac-AARIPSRILKGALRVL-NH2
- MIC [12]: 256 µg/mL
- MIC [15]: 128 µg/mL
- MIC [19]: 512 µg/mL
- MHC [24]: > 512 µg/mL
- HC50 [30]: > 512 µg/mL
- MIC [34]: 64 µg/mL

Substance: Ac-AARILSRILRRALRVL-NH2
- Activity [2]: Active
- Activity [8]: Active
- MIC [12]: 16 µg/mL
- Activity [14]: Active
- MIC [15]: 4 µg/mL
- Flu intensity [38]: 2300
- MIC [19]: 4 µg/mL
- Activity [39]: Active
- MHC [24]: 155 µg/mL
- Activity [29]: Active
- HC50 [30]: 155 µg/mL
- Activity [37]: Active
- MIC [34]: 8 µg/mL

Substance: Ac-AARILSRILSGALRVL-NH2
- MIC [12]: 4 µg/mL
- MIC [15]: 16 µg/mL
- MIC [19]: 4 µg/mL
- MHC [24]: 161 µg/mL
- HC50 [30]: 161 µg/mL
- Activity [37]: Active
- MIC [34]: 64 µg/mL

Substance: Ac-AARILSRILRFFLRVL-NH2
- MIC [12]: 128 µg/mL
- MIC [15]: 256 µg/mL
- MIC [19]: 128 µg/mL
- MHC [24]: 13.37 µg/mL
- HC50 [30]: 13.4 µg/mL
- MIC [34]: > 512 µg/mL

Substance: Ac-AARIPSRILFGALRVL-NH2
- Activity [2]: Active
- Activity [4]: 50.1%
- MIC [6]: 128 µg/mL
- Flu intensity [7]: 10000
- Activity [8]: Active
- MIC [12]: 128 µg/mL
- Flu intensity [13]: 676
- MIC [15]: 64 µg/mL
- MIC [17]: 128 µg/mL
- Flu intensity [40]: -95
- MIC [19]: 128 µg/mL
- MIC [21]: 512 µg/mL
- MIC [23]: 512 µg/mL
- MHC [24]: > 512 µg/mL
- Kd [26]: 39.1 µM
- MIC [27]: 256 µg/mL
- HC50 [30]: > 512 µg/mL
- MIC [32]: 128 µg/mL
- MIC [33]: 128 µg/mL
- MIC [34]: 256 µg/mL
